Values quoted from earlier work in US20070254835A1, “COMPOSITION AND METHOD FOR TREATING NEUROLOGICAL DISORDERS” (priority 2003, published 2007).

Columns and labels:
HDAC = conditions: in words only; literature
mammalian HDAC = conditions: Yoshida et al. 1990
[1] = sterile powder formulation stored at 2-8° C.
DNA methyltransferase = conditions: after incorporation at a site of methylation
MT-3 = conditions: brain tissue

For `O=C(/C=C/c1cccc(C(=O)NO)c1)NO` [CBHA, m-carboxy-cinnamic acid bishydroxamic acid], the “concentration at which HDAC is inhibited” value (HDAC) is listed as “micromolar concentration or lower”.
In the case of `CC(/C=C/C(=O)NO)=C\[C@@H](C)C(=O)c1ccc(N(C)C)cc1` [TSA, trichostatin A], the “inhibition of mammalian HDAC” value (mammalian HDAC) is given as “potent inhibitor”.
In the case of `Nc1ncn([C@H]2C[C@H](O)[C@@H](CO)O2)c(=O)n1` [decitabine, 5-aza-2′-deoxycytidine], the “half life in vivo” value is listed as “short half life”, the tissue distribution (in vivo) is listed as “excellent tissue distribution” and the “time the drug is kept stable” value [1] is listed as “at least 2 years”. For the same compound, the “effect on DNA methyltransferase” value (DNA methyltransferase) was “irreversible inactivation”.
For `C/C=C1\NC(=O)[C@H]2CSSCC/C=C/[C@H](CC(=O)N[C@H](C(C)C)C(=O)N2)OC(=O)[C@H](C(C)C)NC1=O` [Depsipeptide, depsipeptide], the “concentration at which HDAC is inhibited” value (HDAC) is listed as “micromolar concentrations”.
For depudecin, the “concentration at which HDAC is inhibited” value (HDAC) is listed as “micromolar concentrations”.
In the case of `Nc1ncn([C@@H]2O[C@H](CO)[C@@H](O)[C@H]2O)c(=O)n1` [5-azacytidine], the “MT-3 expression after treatment” value (MT-3) is listed as “re-expression of MT-3”.
